Test results from ChEMBL document CHEMBL6153080, “Synthesis and Chemical Structure of the Cyclic Heptapeptide Stylissamide H” (J Nat Prod, 2025).

Tested on: HeLa
Assay: Cytotoxicity against human HeLa cells incubated for 24 hrs by WST-8 assay
Assay type: functional, cell-based

| Structure (SMILES) | EC50 |
| --- | --- |
| CC[C@H](C)[C@@H]1NC(=O)[C@@H]2CCCN2C(=O)[C@H](Cc2c[nH]c3ccccc23)NC(=O)[C@@H]2CCCN2C(=O)[C@H](C(C)C)NC(=O)[C@H](Cc2ccccc2)NC(=O)[C@H](CO)NC1=O | 78 µM |
| CCC(C)[C@@H]1NC(=O)[C@@H]2CCCN2C(=O)[C@H](Cc2c[nH]c3ccccc23)NC(=O)[C@@H]2CCCN2C(=O)[C@@H](C(C)C)NC(=O)[C@H](Cc2ccccc2)NC(=O)[C@H](CO)NC1=O (single isomer, unassigned) | 61 µM |
